Reference: US9023789B2, “Amylin analogs and pharmaceutical compositions thereof” (Novo Nordisk A/S, priority 2012, dated 2015)
Values after ≈ are worked out from the molar mass of the structure shown. Where two headings read alike, the source gives them in different places. Numbered stars: 1 amine (or outer) side, 2 acyl side, 3 side chain; on linkers, the order of the positions; unused ones are H or OH. Bridge positions count the residues as written; N and C are the ends. Side chains are listed from the residue outwards. Peptide text beside a SMILES is read from it. * marks the point of attachment. C20 diacid = O=C(O)CCCCCCCCCCCCCCCCCCC(=O)*; γGlu = O=C(O)[C@H](CCC(=O)[*:2])N[*:1]

Legend:
Sprague Dawley (SD) rats = assay: ASSAY (I) efficacy testing on appetite (food intake) using an ad libitum fed rat model; type: in vivo; conditions: rat, 30 nmol/kg
Summary of the method: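 Ad libitum fed SD rats (200–250 g) were housed singly on a reversed light/dark cycle and given one 0.01–3 mg/kg dose ip, po or sc just before lights-off, with 5–8 per dose group plus vehicle controls. Food intake was recorded hourly for 7 h, then at 24 h and sometimes 48 h; Grubbs outliers were excluded.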

[1] = biological target: T1, rat amylin receptor (rat calcitonin receptor + rat RAMP 3) (Rattus norvegicus, UniProt P32214+Q9JJ73); assay: ASSAY (VI) binding to the rat amylin receptor; conditions: for IC50: binding to rat amylin receptor, read-out: rAmylin-R bind IC50
T1 construct: expressed in transfected cells; host or cells: BHK tk'ts 13 (transient, FuGENE 6), membranes
T1 sequence (P32214 25-479 isoform P32214-2 limits assumed): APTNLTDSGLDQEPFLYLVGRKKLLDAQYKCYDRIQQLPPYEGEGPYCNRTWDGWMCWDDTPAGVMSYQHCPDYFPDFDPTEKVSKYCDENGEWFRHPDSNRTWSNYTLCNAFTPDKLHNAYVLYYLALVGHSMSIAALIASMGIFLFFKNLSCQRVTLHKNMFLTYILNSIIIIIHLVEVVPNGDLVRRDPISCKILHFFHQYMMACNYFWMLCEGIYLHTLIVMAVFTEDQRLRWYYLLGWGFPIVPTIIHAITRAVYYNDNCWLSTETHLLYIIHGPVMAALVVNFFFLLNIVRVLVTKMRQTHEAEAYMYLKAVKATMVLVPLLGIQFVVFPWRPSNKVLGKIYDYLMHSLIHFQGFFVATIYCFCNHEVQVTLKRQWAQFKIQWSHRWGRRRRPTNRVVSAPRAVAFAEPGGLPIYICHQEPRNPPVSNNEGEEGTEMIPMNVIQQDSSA
T1 sequence (Q9JJ73 23-147 partner): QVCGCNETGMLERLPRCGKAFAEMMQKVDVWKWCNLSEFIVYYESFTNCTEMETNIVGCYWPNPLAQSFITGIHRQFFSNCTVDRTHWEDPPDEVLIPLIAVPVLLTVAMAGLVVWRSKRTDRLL
Summary of the method: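 This assay measured binding to the rat amylin receptor. BHK tk′ts 13 cells were transiently transfected with the rat calcitonin receptor using FuGENE® 6 (Roche), following the manufacturer's recommendations. About 48 hours after transfection, the cells were harvested and membranes were prepared from them for the binding determination.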

[2] = biological target: T2, human amylin receptor (membranes from Amylin 3(a)/CRE-luc cells) (Homo sapiens, UniProt O60896+P30988); assay: ASSAY (V) binding to the human amylin receptor (SPA, 125I-rat amylin);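 note: competition binding of cell membranes (35 ng/µL) mixed with SPA beads in 384-well plates at 40 µL total volume, read by scintillation counting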
T2 construct: expressed in transfected cells
T2 sequence (P30988 25-474): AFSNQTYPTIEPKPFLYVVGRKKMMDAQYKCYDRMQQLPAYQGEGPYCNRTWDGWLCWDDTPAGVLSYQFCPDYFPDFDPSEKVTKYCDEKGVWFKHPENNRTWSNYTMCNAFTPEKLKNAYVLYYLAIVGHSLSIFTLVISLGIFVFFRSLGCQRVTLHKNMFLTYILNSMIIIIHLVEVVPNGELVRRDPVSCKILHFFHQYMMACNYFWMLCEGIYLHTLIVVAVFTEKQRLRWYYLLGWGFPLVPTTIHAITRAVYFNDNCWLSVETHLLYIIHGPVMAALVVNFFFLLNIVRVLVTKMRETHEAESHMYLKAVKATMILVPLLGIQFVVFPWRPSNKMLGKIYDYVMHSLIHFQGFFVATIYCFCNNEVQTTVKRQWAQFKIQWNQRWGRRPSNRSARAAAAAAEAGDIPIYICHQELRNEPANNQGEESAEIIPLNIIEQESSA
T2 sequence (O60896 24-148 partner): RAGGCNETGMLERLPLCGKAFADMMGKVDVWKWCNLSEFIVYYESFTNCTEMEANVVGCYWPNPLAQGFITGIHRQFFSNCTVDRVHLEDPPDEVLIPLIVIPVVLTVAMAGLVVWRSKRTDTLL

rat calcitonin receptor = biological target: T3, rat calcitonin receptor (Rattus norvegicus, UniProt P32214); assay: ASSAY (VIII) binding to the rat calcitonin receptor; conditions: Table 7, read-out: rCTR bind IC50
T3 construct: expressed in transfected cells; host or cells: BHK tk'ts 13 (transient, FuGENE 6), membranes
T3 sequence (P32214 25-479 isoform P32214-2 limits assumed): T1 sequence (P32214 25-479 isoform P32214-2 limits assumed)
Summary of the method: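 Transfect BHK tk′ts 13 cells transiently with rat calcitonin receptor, culture in DMEM containing 10% FBS, collect cells about 48 hours later, then prepare membranes.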

[3] = ASSAY (IV) determination of solubility; type: physicochemical
Summary of the method: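 Polypeptide stock in water ([…]) was mixed 1:1 with 100 mM buffers: glycylglycine at pH 3.0, 4.0, 5.0 and bistrispropane at pH 6.0, 6.5, 7.0, 7.5, 8.0. After 18 hours at room temperature, samples were centrifuged and polypeptide concentration measured by UPLC.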

[4] = Table 7, rat binding selectivity, rCTR IC50 / rAmylin-R IC50
[5] = Table 7a (preferred compounds), rat binding selectivity, rCTR IC50 / rAmylin-R IC50
[6] = ratio of rCTR bind IC50 to rAmylin-R bind IC50
[7] = Table 5, selectivity, hCTR bind IC50 / hAmylin-R bind IC50
[8] = Table 5a, selectivity, hCTR bind IC50 / hAmylin-R bind IC50
[9] = Table 5b, selectivity, hCTR bind IC50 / hAmylin-R bind IC50
[10] = Table 5c, selectivity, hCTR bind IC50 / hAmylin-R bind IC50
[11] = Table 7, human binding selectivity, included for comparison
[12] = Table 7a (preferred compounds), human binding selectivity, included for comparison
[13] = ratio of human calcitonin receptor binding IC50 to human amylin receptor binding IC50
[14] = bistrispropane buffer, pH 6.5, read-out: Solubility pH 6.5 Concentration
[15] = bistrispropane buffer, pH 7.5, read-out: Solubility pH 7.5 Concentration
[16] = bistrispropane buffer, pH 6.0, read-out: Solubility pH 6.0 Concentration
[17] = bistrispropane buffer, pH 7.0, read-out: Solubility pH 7.0 Concentration
[18] = bistrispropane buffer, pH 8.0, read-out: Solubility pH 8.0 Concentration
[19] = glycylglycine buffer, pH 3.0, read-out: Solubility pH 3.0 Concentration
[20] = glycylglycine buffer, pH 4.0, read-out: Solubility pH 4.0 Concentration
[21] = glycylglycine buffer, pH 5.0, read-out: Solubility pH 5.0 Concentration

Compound	Food intake reduction 0-24 h 30 nmol/kg (%) (Sprague Dawley (SD) rats)	Food intake reduction 24-48 h 30 nmol/kg (%) (Sprague Dawley (SD) rats)	IC50 ([1]; Table 7) [nM]	Ratio rCT/rAmylin binding [1, 4]	Ratio rCT/rAmylin binding [1, 5]	Ratio rCT/rAmylin binding [1, 6]	Ratio hCT/hAmylin binding [2, 7]	Ratio hCT/hAmylin binding [2, 8]	Ratio hCT/hAmylin binding [2, 9]	Ratio hCT/hAmylin binding [2, 10]	Ratio hCT/hAmylin binding [2, 11]	Ratio hCT/hAmylin binding [2, 12]	Ratio hCT/hAmylin binding [2, 13]	IC50 (rat calcitonin receptor) [nM]	solubility at 18 h [3, 14] [µM]	solubility at 18 h [3, 15] [µM]	solubility at 18 h [3, 16] [µM]	solubility at 18 h [3, 17] [µM]	solubility at 18 h [3, 18] [µM]	solubility at 18 h [3, 19] [µM]	other results
CC[C@H](C)[C@H](NC(=O)[C@H](C)NC(=O)CNC(=O)[C@H](Cc1ccccc1)NC(=O)[C@H](CC(N)=O)NC(=O)[C@@H]1CCCN1C(=O)[C@H](CO)NC(=O)[C@H](CO)NC(=O)[C@H](Cc1c[nH]cn1)NC(=O)[C@H](CCCNC(=N)N)NC(=O)[C@H](CC(C)C)NC(=O)[C@H](Cc1ccccc1)NC(=O)[C@H](CC(N)=O)NC(=O)[C@H](C)NC(=O)[C@H](CC(C)C)NC(=O)[C@H](CCCNC(=N)N)NC(=O)[C@H](CCC(N)=O)NC(=O)[C@@H](NC(=O)[C@H](C)NC(=O)[C@@H]1CSSC[C@H](NC(=O)[C@@H](N)CCCCNC(=O)CC[C@H](NC(=O)CCCCCCCCCCCCCCCCCCC(=O)O)C(=O)O)C(=O)N[C@@H](CC(N)=O)C(=O)N[C@@H]([C@@H](C)O)C(=O)N[C@@H](C)C(=O)N[C@@H]([C@@H](C)O)C(=O)N1)[C@@H](C)O)C(=O)N1CCC[C@H]1C(=O)N[C@@H](CO)C(=O)N[C@@H](CO)C(=O)N[C@H](C(=O)N[C@@H](CC(N)=O)C(=O)N[C@H](C(=O)NCC(=O)N[C@@H](Cc1c[nH]cn1)C(=O)N[C@@H](CC(N)=O)C(=O)N[C@H](C(=O)N[C@@H](Cc1ccc(O)cc1)C(N)=O)[C@@H](C)O)C(C)C)[C@@H](C)O [Example 77]	40	16	1.5	136.8	136.8	136.8	118.4	118.4	118.4	118.4	118.4	118.4	118.4	205	≥ 200	147 (≈ 651 µg/mL)	≥ 200	≥ 200	59 (≈ 261 µg/mL)	≥ 200	solubility at 18 h [3, 20]: ≥ 200 µM; solubility at 18 h [3, 21]: ≥ 200 µM; Solubility pH 6.5 Concentration ([3]; pH 6.5 (Table 9a)): ≧200 μM; Solubility pH 7.0 Concentration ([3]; pH 7.0 (Table 9a)): ≧200 μM
CC[C@H](C)[C@H](NC(=O)[C@H](C)NC(=O)CNC(=O)[C@H](Cc1ccccc1)NC(=O)[C@H](CC(N)=O)NC(=O)[C@@H]1CCCN1C(=O)[C@H](CO)NC(=O)[C@H](CO)NC(=O)[C@H](Cc1c[nH]cn1)NC(=O)[C@H](CCCNC(=N)N)NC(=O)[C@H](CC(C)C)NC(=O)[C@H](Cc1ccccc1)NC(=O)[C@H](Cc1c[nH]cn1)NC(=O)[C@H](C)NC(=O)[C@H](CC(C)C)NC(=O)[C@H](CCCNC(=N)N)NC(=O)[C@H](CCC(N)=O)NC(=O)[C@@H](NC(=O)[C@H](C)NC(=O)[C@@H]1CSSC[C@H](NC(=O)[C@@H](N)CCCCNC(=O)CC[C@H](NC(=O)CCCCCCCCCCCCCCCCCCC(=O)O)C(=O)O)C(=O)N[C@@H](CC(N)=O)C(=O)N[C@@H]([C@@H](C)O)C(=O)N[C@@H](C)C(=O)N[C@@H]([C@@H](C)O)C(=O)N1)[C@@H](C)O)C(=O)N1CCC[C@H]1C(=O)N[C@@H](CO)C(=O)N[C@@H](CO)C(=O)N[C@H](C(=O)N[C@@H](CC(N)=O)C(=O)N[C@H](C(=O)NCC(=O)N1CCC[C@H]1C(=O)N[C@@H](CC(N)=O)C(=O)N[C@H](C(=O)N[C@@H](Cc1ccc(O)cc1)C(N)=O)[C@@H](C)O)C(C)C)[C@@H](C)O [Example 67] (H-K([γGlu-C20 diacid])CNTATCATQRLAHFLRHSSPNFGAIPSSTNVGPNTY-NH2; disulfide 2-7 (inferred); N-terminus assumed)	47	0	0.172	85.4	85.4	85.4	51.6	51.6	51.6	51.6	51.6	51.6	51.6	14.7	≥ 200	≥ 200	≥ 200	≥ 200	178 (≈ 786 µg/mL)	≥ 200	solubility at 18 h [3, 20]: ≥ 200 µM; solubility at 18 h [3, 21]: ≥ 200 µM
CC[C@H](C)[C@H](NC(=O)[C@H](C)NC(=O)CNC(=O)[C@H](Cc1ccccc1)NC(=O)[C@H](CC(N)=O)NC(=O)[C@@H]1CCCN1C(=O)[C@H](CO)NC(=O)[C@H](CO)NC(=O)[C@H](Cc1c[nH]cn1)NC(=O)[C@H](CCCNC(=N)N)NC(=O)[C@H](CC(C)C)NC(=O)[C@H](Cc1ccccc1)NC(=O)[C@H](CCC(=O)O)NC(=O)[C@H](C)NC(=O)[C@H](CC(C)C)NC(=O)[C@H](CCCNC(=N)N)NC(=O)[C@H](CCC(N)=O)NC(=O)[C@@H](NC(=O)[C@H](C)NC(=O)[C@@H]1CSSC[C@H](NC(=O)[C@@H](N)CCCCNC(=O)CC[C@H](NC(=O)CCCCCCCCCCCCCCCCCCC(=O)O)C(=O)O)C(=O)N[C@@H](CC(N)=O)C(=O)N[C@@H]([C@@H](C)O)C(=O)N[C@@H](C)C(=O)N[C@@H]([C@@H](C)O)C(=O)N1)[C@@H](C)O)C(=O)N1CCC[C@H]1C(=O)N[C@@H](CO)C(=O)N[C@@H](CO)C(=O)N[C@H](C(=O)N[C@@H](CC(N)=O)C(=O)N[C@H](C(=O)NCC(=O)N[C@@H](CO)C(=O)N[C@@H](CCCNC(=N)N)C(=O)N[C@H](C(=O)N[C@@H](Cc1ccc(O)cc1)C(N)=O)[C@@H](C)O)C(C)C)[C@@H](C)O [Example 51] (H-K([γGlu-C20 diacid])CNTATCATQRLAEFLRHSSPNFGAIPSSTNVGSRTY-NH2; disulfide 2-7 (inferred); N-terminus assumed)	52	30	0.523	118.6	118.6	118.6	37.5	37.5	37.5	37.5	37.5	37.5	37.5	62	≥ 200	183 (≈ 812 µg/mL)	≥ 200	≥ 200	109 (≈ 484 µg/mL)	≥ 200	solubility at 18 h [3, 20]: ≥ 200 µM; solubility at 18 h [3, 21]: ≥ 200 µM
